Data from US9695155B2, “Herbicidal substituted pyrimidinyloxy benzene compounds” (E. I. DU PONT DE NEMOURS AND COMPANY, priority 2013, dated 2017).

What was measured:
[1] = tested on: bluegrass; assay: Test D preemergence; assay type: in vivo, Poa annua; settings: Poa annua, pre-emergence; for pest or weed control at 16 g/ha: 16 g ai/ha, scale 0 (no effect) to 100 (complete control), read-out: Plant response rating, Bluegrass; for pest or weed control at 31 g/ha: 31 g ai/ha; for pest or weed control at 31 g/ha / pest or weed control at 62 g/ha / pest or weed control at 125 g/ha: scale 0-100, read-out: Plant response rating, Bluegrass; for pest or weed control at 62 g/ha: 62 g ai/ha; for pest or weed control at 125 g/ha: 125 g ai/ha
Outline: (§1)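 Seeds sown in silt loam soil got preemergence sprays; plants in peat/vermiculite potting medium were sprayed postemergence at 2–18 cm (1- to 4-leaf stage). Chemicals were formulated in a non-phytotoxic solvent mixture with surfactant. After 7 to 21 days in a controlled environment, injury was rated visually versus controls, 0 (no effect) to 100 (complete control).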

[2] = tested on: blackgrass; assay: Test D preemergence; assay type: in vivo, Alopecurus myosuroides; settings: Alopecurus myosuroides, pre-emergence; for pest or weed control at 16 g/ha: 16 g ai/ha, scale 0 (no effect) to 100 (complete control), read-out: Plant response rating, Blackgrass; for pest or weed control at 31 g/ha: 31 g ai/ha; for pest or weed control at 31 g/ha / pest or weed control at 62 g/ha / pest or weed control at 125 g/ha: scale 0-100, read-out: Plant response rating, Blackgrass; for pest or weed control at 62 g/ha: 62 g ai/ha; for pest or weed control at 125 g/ha: 125 g ai/ha
Outline: as §1

[3] = tested on: canarygrass; assay: Test D preemergence; assay type: in vivo, Phalaris minor; settings: Phalaris minor, pre-emergence; for pest or weed control at 16 g/ha: 16 g ai/ha, scale 0 (no effect) to 100 (complete control), read-out: Plant response rating, Canarygrass; for pest or weed control at 31 g/ha: 31 g ai/ha; for pest or weed control at 31 g/ha / pest or weed control at 62 g/ha / pest or weed control at 125 g/ha: scale 0-100, read-out: Plant response rating, Canarygrass; for pest or weed control at 62 g/ha: 62 g ai/ha; for pest or weed control at 125 g/ha: 125 g ai/ha
Outline: as §1

[4] = tested on: speedwell; assay: Test D preemergence; assay type: in vivo, Veronica persica; settings: Veronica persica, pre-emergence; for pest or weed control at 16 g/ha: 16 g ai/ha; for pest or weed control at 16 g/ha / pest or weed control at 31 g/ha: scale 0 (no effect) to 100 (complete control), read-out: Plant response rating, Speedwell; for pest or weed control at 31 g/ha: 31 g ai/ha; for pest or weed control at 62 g/ha: 62 g ai/ha; for pest or weed control at 62 g/ha / pest or weed control at 125 g/ha: scale 0-100, read-out: Plant response rating, Speedwell; for pest or weed control at 125 g/ha: 125 g ai/ha
Outline: as §1

[5] = tested on: spring barley; assay: Test D preemergence; assay type: in vivo, Hordeum vulgare; settings: Hordeum vulgare, pre-emergence; for plant injury at 16 g/ha: 16 g ai/ha, scale 0 (no effect) to 100 (complete control), read-out: Plant response rating, Barley, Spring; for plant injury at 31 g/ha: 31 g ai/ha; for plant injury at 31 g/ha / plant injury at 62 g/ha / plant injury at 125 g/ha: scale 0-100, read-out: Plant response rating, Barley, Spring; for plant injury at 62 g/ha: 62 g ai/ha; for plant injury at 125 g/ha: 125 g ai/ha
Outline: as §1

[6] = tested on: winter barley; assay: Test D preemergence; assay type: in vivo, Hordeum vulgare; settings: Hordeum vulgare, pre-emergence; for plant injury at 16 g/ha: 16 g ai/ha, scale 0 (no effect) to 100 (complete control), read-out: Plant response rating, Barley, Winter; for plant injury at 31 g/ha: 31 g ai/ha; for plant injury at 31 g/ha / plant injury at 62 g/ha / plant injury at 125 g/ha: scale 0-100, read-out: Plant response rating, Barley, Winter; for plant injury at 62 g/ha: 62 g ai/ha; for plant injury at 125 g/ha: 125 g ai/ha
Outline: as §1

[7] = tested on: wild buckwheat; assay: Test D preemergence; assay type: in vivo, Polygonum convolvulus; settings: Fallopia convolvulus, pre-emergence; for pest or weed control at 16 g/ha: 16 g ai/ha, scale 0 (no effect) to 100 (complete control), read-out: Plant response rating, Buckwheat, Wild; for pest or weed control at 31 g/ha: 31 g ai/ha; for pest or weed control at 31 g/ha / pest or weed control at 62 g/ha / pest or weed control at 125 g/ha: scale 0-100, read-out: Plant response rating, Buckwheat, Wild; for pest or weed control at 62 g/ha: 62 g ai/ha; for pest or weed control at 125 g/ha: 125 g ai/ha
Outline: as §1

[8] = tested on: windgrass; assay: Test D preemergence; assay type: in vivo, Apera spica-venti; settings: Apera spica-venti, pre-emergence; for pest or weed control at 16 g/ha: 16 g ai/ha; for pest or weed control at 16 g/ha / pest or weed control at 31 g/ha: scale 0 (no effect) to 100 (complete control), read-out: Plant response rating, Windgrass; for pest or weed control at 31 g/ha: 31 g ai/ha; for pest or weed control at 62 g/ha: 62 g ai/ha; for pest or weed control at 62 g/ha / pest or weed control at 125 g/ha: scale 0-100, read-out: Plant response rating, Windgrass; for pest or weed control at 125 g/ha: 125 g ai/ha
Outline: as §1

[9] = tested on: blackgrass; assay: Test D postemergence; assay type: in vivo, Alopecurus myosuroides; settings: Alopecurus myosuroides, post-emergence, Postemergence, scale 0 to 100 (0 no effect, 100 complete control), read-out: Plant response rating, Blackgrass; for pest or weed control at 62 g/ha: 62 g ai/ha; for pest or weed control at 16 g/ha: 16 g ai/ha; for pest or weed control at 31 g/ha: 31 g ai/ha; for pest or weed control at 125 g/ha: 125 g ai/ha
Outline: as §1

[10] = tested on: chickweed; assay: Test D postemergence; assay type: in vivo, Stellaria media; settings: Stellaria media, post-emergence; for pest or weed control at 16 g/ha: 16 g ai/ha, scale 0-100, read-out: Plant response rating, Chickweed; for pest or weed control at 31 g/ha: 31 g ai/ha; for pest or weed control at 31 g/ha / pest or weed control at 62 g/ha / pest or weed control at 125 g/ha: scale 0 to 100 (0 no effect, 100 complete control), read-out: Plant response rating, Chickweed; for pest or weed control at 62 g/ha: 62 g ai/ha; for pest or weed control at 125 g/ha: 125 g ai/ha
Outline: as §1

[11] = tested on: pigweed; assay: Test D postemergence; assay type: in vivo, Amaranthus retroflexus; settings: Amaranthus retroflexus, post-emergence; for pest or weed control at 16 g/ha: 16 g ai/ha, scale 0-100, read-out: Plant response rating, Pigweed; for pest or weed control at 31 g/ha: 31 g ai/ha; for pest or weed control at 31 g/ha / pest or weed control at 62 g/ha / pest or weed control at 125 g/ha: scale 0 to 100 (0 no effect, 100 complete control), read-out: Plant response rating, Pigweed; for pest or weed control at 62 g/ha: 62 g ai/ha; for pest or weed control at 125 g/ha: 125 g ai/ha
Outline: as §1

## FC(F)(F)COc1cnn(-c2ccccc2Oc2ncc(Cl)cn2)c1 [Compound 138, 5-chloro-2-[2-[4-(2,2,2-trifluoroethoxy)-1H-pyrazol-1-yl]phenoxy]pyrimidine]
[1]
  pest or weed control at 16 g/ha: 0%
  pest or weed control at 31 g/ha: 0%
  pest or weed control at 62 g/ha: 0%
  pest or weed control at 125 g/ha: 10%
[2]
  pest or weed control at 16 g/ha: 0%
  pest or weed control at 31 g/ha: 0%
  pest or weed control at 62 g/ha: 25%
  pest or weed control at 125 g/ha: 30%
[3]
  pest or weed control at 16 g/ha: 10%
  pest or weed control at 31 g/ha: 10%
  pest or weed control at 62 g/ha: 20%
  pest or weed control at 125 g/ha: 40%
[4]
  pest or weed control at 16 g/ha: 70%
  pest or weed control at 31 g/ha: 100%
  pest or weed control at 62 g/ha: 100%
  pest or weed control at 125 g/ha: 100%
[5]
  plant injury at 16 g/ha: 10%
  plant injury at 31 g/ha: 10%
  plant injury at 62 g/ha: 10%
  plant injury at 125 g/ha: 15%
[6]
  plant injury at 16 g/ha: 0%
  plant injury at 31 g/ha: 0%
  plant injury at 62 g/ha: 5%
  plant injury at 125 g/ha: 15%
[7]
  pest or weed control at 16 g/ha: 60%
  pest or weed control at 31 g/ha: 35%
  pest or weed control at 62 g/ha: 55%
  pest or weed control at 125 g/ha: 75%
[8]
  pest or weed control at 16 g/ha: 0%
  pest or weed control at 31 g/ha: 0%
  pest or weed control at 62 g/ha: 0%
  pest or weed control at 125 g/ha: 15%
[9]
  pest or weed control at 62 g/ha: 10%
  pest or weed control at 16 g/ha: 5%
  pest or weed control at 31 g/ha: 5%
  pest or weed control at 125 g/ha: 15%
[10]
  pest or weed control at 16 g/ha: 20%
  pest or weed control at 31 g/ha: 20%
  pest or weed control at 62 g/ha: 40%
  pest or weed control at 125 g/ha: 55%
[11]
  pest or weed control at 16 g/ha: 65%
  pest or weed control at 31 g/ha: 70%
  pest or weed control at 62 g/ha: 90%
  pest or weed control at 125 g/ha: 90%

## FC(F)(F)c1cn(-c2ccccc2Oc2ncc(Cl)cn2)nn1 [Compound 166, 5-chloro-2-[2-[4-(trifluoromethyl)-1H-1,2,3-triazol-1-yl]phenoxy]pyrimidine]
[1]
  pest or weed control at 16 g/ha: 5%
  pest or weed control at 31 g/ha: 20%
  pest or weed control at 62 g/ha: 65%
  pest or weed control at 125 g/ha: 100%
[2]
  pest or weed control at 16 g/ha: 10%
  pest or weed control at 31 g/ha: 55%
  pest or weed control at 62 g/ha: 70%
  pest or weed control at 125 g/ha: 95%
[3]
  pest or weed control at 16 g/ha: 30%
  pest or weed control at 31 g/ha: 50%
  pest or weed control at 62 g/ha: 70%
  pest or weed control at 125 g/ha: 100%
[4]
  pest or weed control at 16 g/ha: 100%
  pest or weed control at 31 g/ha: 100%
  pest or weed control at 62 g/ha: 100%
  pest or weed control at 125 g/ha: 100%
[5]
  plant injury at 16 g/ha: 0%
  plant injury at 31 g/ha: 0%
  plant injury at 62 g/ha: 30%
  plant injury at 125 g/ha: 60%
[6]
  plant injury at 16 g/ha: 0%
  plant injury at 31 g/ha: 0%
  plant injury at 62 g/ha: 35%
  plant injury at 125 g/ha: 50%
[7]
  pest or weed control at 16 g/ha: 60%
  pest or weed control at 31 g/ha: 95%
  pest or weed control at 62 g/ha: 100%
  pest or weed control at 125 g/ha: 100%
[8]
  pest or weed control at 16 g/ha: 50%
  pest or weed control at 31 g/ha: 75%
  pest or weed control at 62 g/ha: 100%
  pest or weed control at 125 g/ha: 100%
[9]
  pest or weed control at 62 g/ha: 40%
  pest or weed control at 16 g/ha: 15%
  pest or weed control at 31 g/ha: 20%
  pest or weed control at 125 g/ha: 65%
[10]
  pest or weed control at 16 g/ha: 55%
  pest or weed control at 31 g/ha: 65%
  pest or weed control at 62 g/ha: 80%
  pest or weed control at 125 g/ha: 90%
[11]
  pest or weed control at 16 g/ha: 80%
  pest or weed control at 31 g/ha: 85%
  pest or weed control at 62 g/ha: 95%
  pest or weed control at 125 g/ha: 95%
